According to patent US20160361330A1 (priority 2014, published 2016):
Where “and” joins values, the source holds several entries; their conditions need not be identical. Equal values may be shown once. Read-outs that look alike come from different tables or passages of the source.

Legend:
[1] = system: EBOV-GFP (Ebola virus expressing the GFP reporter gene); experiment: microbe, parasite or virus in culture; assay type: cell-based; conditions: read-out: EC50 (nM) Reporter Virus EBOV-GFP HMVEC-TERT
[2] = system: EBOV-GFP (Ebola virus expressing the GFP reporter gene); experiment: microbe, parasite or virus in culture; assay type: cell-based; conditions: Zaire ebolavirus, Huh-7, read-out: EC50 (nM) Reporter Virus EBOV-GFP Huh-7
[3] = system: ebolavirus (EBOV) strain Zaire; experiment: organism not typed; assay type: cell-based, Ebola virus; conditions: read-out: EC50 (nM) Antigen expression (high content imaging) Ebola Hela
[4] = system: ebolavirus (EBOV) strain Zaire; experiment: organism not typed; assay type: cell-based, Ebola virus; conditions: read-out: EC50 (nM) Antigen expression (high content imaging) Ebola Macrophage
[5] = system: EBOV-Luc (Ebola virus expressing the luciferase reporter gene); experiment: microbe, parasite or virus in culture; assay type: cell-based; conditions: Zaire ebolavirus, Huh-7, read-out: EC50 (nM) Reporter Virus EVOV-Luc Huh-7
[6] = system: MARV-GFP (Marburg virus expressing the GFP reporter gene); experiment: organism not typed; assay type: cell-based; conditions: Huh-7, read-out: EC50 (nM) Reporter Virus MARV-GFP Huh-7
[7] = system: NiV GFP (Nipah virus expressing the GFP reporter gene); experiment: microbe, parasite or virus in culture; assay type: cell-based; conditions: Henipavirus nipahense, read-out: EC50 (nM) Reporter Virus NiV GFP HMVEC-TERT
[8] = system: NiV-Luc (Nipah virus expressing the luciferase reporter gene); experiment: microbe, parasite or virus in culture; assay type: cell-based; conditions: Henipavirus nipahense, read-out: EC50 (nM) Reporter Virus NiV Luc HMVEC-TERT
NiV (Nipah virus) [9] = experiment: microbe, parasite or virus in culture; assay type: cell-based; conditions: Henipavirus nipahense, HeLa, read-out: EC50 (nM) CPE NiV Hela
NiV (Nipah virus) [10] = experiment: microbe, parasite or virus in culture; assay type: cell-based; conditions: Henipavirus nipahense, HeLa, read-out: EC50 (nM) Yield NiV Hela
Ebola virus (EBOV) [11] = experiment: microbe, parasite or virus in culture; assay type: cell-based; conditions: Zaire ebolavirus, Huh-7, read-out: EC50 (nM) RNA Ebola Huh-7
Ebola virus (EBOV) [12] = experiment: microbe, parasite or virus in culture; assay type: cell-based; conditions: Zaire ebolavirus, Huh-7, read-out: EC50 (nM) Yield Ebola Huh-7

SMILES | EC50 ([1]; Zaire ebolavirus) | EC50 ([3]; HeLa) | EC50 ([4]; Macrophage) | also measured
CCC(CC)COC(=O)[C@H](C)N[P@@](=O)(OC[C@H]1O[C@@](C#N)(c2ccc3c(N)ncnn23)[C@H](O)[C@@H]1O)Oc1ccccc1 (single isomer, unassigned) [(R)-Diastereomer of Compound 9] | 62 nM | 210 nM | 112 nM | EC50 [2]: 70 nM
CCC(CC)COC(=O)[C@H](C)N[P@](=O)(OC[C@H]1O[C@@](C#N)(c2ccc3c(N)ncnn23)[C@H](O)[C@@H]1O)Oc1ccccc1 (single isomer, unassigned) [(S)-Diastereomer of Compound 9 (Compound 32)] | 40 nM | 100 nM | 87 nM | EC50 [2]: 81 nM
CC(C)OC(=O)[C@H](C)NP(=O)(OC[C@H]1O[C@@](C#N)(c2ccc3c(N)ncnn23)[C@H](O)[C@@H]1O)Oc1ccccc1 (stereo in doubt) [Compound 23, (S)-isopropyl 2-(((R)-(((2R,3S,4R,5R)-5-(4-aminopyrrolo[2,1-f][1,2,4]triazin-7-yl)-5-cyano-3,4-dihydroxytetrahydrofuran-2-yl)methoxy)(phenoxy)phosphoryl)amino)propanoate] | 458 nM | 1650 nM | 243 nM | EC50 [3]: 1840 nM; EC50 [4]: 350 nM and 297 nM
N#C[C@@]1(c2ccc3c(N)ncnn23)O[C@H](CO)[C@@H](O)[C@H]1O [Compound 1, (2R, 3R, 4S, 5R)-2-(4-aminopyrrolo[1,2-f][1,2,4]triazin-7-yl)-3,4-dihydroxy-5-(hydroxymethyl)tetrahydrofuran-2-carbonitrile] | 771 nM | > 20000 nM | > 20000 nM | EC50 [2]: 1490 nM; EC50 [5]: 3130 nM; EC50 [6]: 1730 nM; EC50 [7]: 13400 nM; EC50 [8]: 3500 nM; EC50 (NiV (Nipah virus) [9]): 1480 nM; EC50 (NiV (Nipah virus) [10]): 1000 nM
CCC(CC)COC(=O)[C@H](C)NP(=O)(OC[C@H]1O[C@@](C#N)(c2ccc3c(N)ncnn23)[C@H](O)[C@@H]1O)Oc1ccccc1 (stereo partly drawn) [Compound 9, (2S)-2-ethylbutyl 2-(((((2R,3S,4R,5R)-5-(4-aminopyrrolo[2,1-f][1,2,4]triazin-7-yl)-5-cyano-3,4-dihydroxytetrahydrofuran-2-yl)methoxy)(phenoxy)phosphoryl)amino) propanoate] |  | 290 nM |  | EC50 [2]: 90 nM; EC50 (Ebola virus (EBOV) [11]): 1 nM; EC50 (Ebola virus (EBOV) [12]): 1030 nM; EC50 [3]: 270 nM; EC50 [4]: 501 nM; EC50 [7]: 60 nM; EC50 [8]: 30 nM
CCOC(=O)[C@H](C)NP(=O)(OC[C@H]1O[C@@](C#N)(c2ccc3c(N)ncnn23)[C@H](O)[C@@H]1O)Oc1ccccc1 (stereo partly drawn) [Compound 10, (2S)-ethyl 2-(((((2R,3S,4R,5R)-5-(4-aminopyrrolo[2,1-f][1,2,4]triazin-7-yl)-5-cyano-3,4-dihydroxytetrahydrofuran-2-yl)methoxy)(phenoxy)phosphoryl)amino)propanoate] |  | 3200 nM |  | 
CC(C)(C)C(=O)SCCOP(=O)(OCCSC(=O)C(C)(C)C)OC[C@H]1O[C@@](C#N)(c2ccc3c(N)ncnn23)[C@H](O)[C@@H]1O [Compound 15] | 630 nM | 520 nM | 501 nM | EC50 [2]: 271 nM
CCOC(=O)[C@H](Cc1ccccc1)NP(=O)(OC[C@H]1O[C@@](C#N)(c2ccc3c(N)ncnn23)[C@H](O)[C@@H]1O)Oc1ccccc1 (stereo partly drawn) [Compound 21, (2S)-ethyl 2-(((((2R,3S,4R,5R)-5-(4-aminopyrrolo[2,1-f][1,2,4]triazin-7-yl)-5-cyano-3,4-dihydroxytetrahydrofuran-2-yl)methoxy)(phenoxy)phosphoryl)amino)-3-phenylpropanoate] | 905 nM |  | 270 nM | EC50 [1]: 473 nM
CCOC(=O)[C@@H](NP(=O)(OC[C@H]1O[C@@](C#N)(c2ccc3c(N)ncnn23)[C@H](O)[C@@H]1O)Oc1ccccc1)C(C)C (stereo partly drawn) [Compound 22, (2S)-ethyl 2-(((((2R,3S,4R,5R)-5-(4-aminopyrrolo[2,1-f][1,2,4]triazin-7-yl)-5-cyano-3,4-dihydroxytetrahydrofuran-2-yl)methoxy)(phenoxy)phosphoryl)amino)-3-methylbutanoate] |  | 11600 nM |  | 
C[C@H](NP(=O)(OC[C@H]1O[C@@](C#N)(c2ccc3c(N)ncnn23)[C@H](O)[C@@H]1O)Oc1ccccc1)C(=O)OC1CCC1 (stereo partly drawn) [Compound 24, (2S)-cyclobutyl 2-(((((2R,3S,4R,5R)-5-(4-aminopyrrolo[2,1-f][1,2,4]triazin-7-yl)-5-cyano-3,4-dihydroxytetrahydrofuran-2-yl)methoxy)(phenoxy)phosphoryl)amino)propanoate] |  | 785 nM |  | 
CC(C)OC(=O)[C@H](Cc1ccccc1)NP(=O)(OC[C@H]1O[C@@](C#N)(c2ccc3c(N)ncnn23)[C@H](O)[C@@H]1O)Oc1ccccc1 (stereo partly drawn) [Compound 25, (2S)-isopropyl 2-(((((2R,3S,4R,5R)-5-(4-aminopyrrolo[2,1-f][1,2,4]triazin-7-yl)-5-cyano-3,4-dihydroxytetrahydrofuran-2-yl)methoxy)(phenoxy)phosphoryl)amino)-3-phenylpropanoate] |  | 6720 nM |  | 
COC(=O)[C@H](C)N[P@](=O)(OC[C@H]1O[C@@](C#N)(c2ccc3c(N)ncnn23)[C@H](O)[C@@H]1O)Oc1ccccc1 [Compound 26, (S)-methyl 2-(((S)-(((2R,3S,4R,5R)-5-(4-aminopyrrolo[2,1-f][1,2,4]triazin-7-yl)-5-cyano-3,4-dihydroxytetrahydrofuran-2-yl)methoxy)(phenoxy)phosphoryl)amino)propanoate] | 283 nM | 970 nM | 1180 nM | EC50 [3]: 1100 nM; EC50 [4]: 1290 nM
C[C@H](N[P@](=O)(OC[C@H]1O[C@@](C#N)(c2ccc3c(N)ncnn23)[C@H](O)[C@@H]1O)Oc1ccccc1)C(=O)OCC(C)(C)C [Compound 27, (S)-neopentyl 2-(((S)-(((2R,3S,4R,5R)-5-(4-aminopyrrolo[2,1-f][1,2,4]triazin-7-yl)-5-cyano-3,4-dihydroxytetrahydrofuran-2-yl)methoxy)(phenoxy)phosphoryl)amino) propanoate] | 82 nM | 182 nM |  | 
C[C@H](NP(=O)(OC[C@H]1O[C@@](C#N)(c2ccc3c(N)ncnn23)[C@H](O)[C@@H]1O)Oc1ccccc1)C(=O)OC1CCCC1 (stereo partly drawn) [Compound 28, (2S)-cyclopentyl 2-(((((2R,3S,4R,5R)-5-(4-aminopyrrolo[2,1-f][1,2,4]triazin-7-yl)-5-cyano-3,4-dihydroxytetrahydrofuran-2-yl)methoxy)(phenoxy)phosphoryl)amino) propanoate] | 102 nM | 975 nM | 120 nM | EC50 [3]: 682 nM
C[C@H](NP(=O)(OC[C@H]1O[C@@](C#N)(c2ccc3c(N)ncnn23)[C@H](O)[C@@H]1O)Oc1ccccc1)C(=O)OC1CCCCC1 (stereo partly drawn) [Compound 29, (2S)-cyclohexyl 2-(((((2R,3S,4R,5R)-5-(4-aminopyrrolo[2,1-f][1,2,4]triazin-7-yl)-5-cyano-3,4-dihydroxytetrahydrofuran-2-yl)methoxy)(phenoxy)phosphoryl)amino) propanoate] |  | 275 nM |  | 
CCOC(=O)C(C)(C)NP(=O)(OC[C@H]1O[C@@](C#N)(c2ccc3c(N)ncnn23)[C@H](O)[C@@H]1O)Oc1ccccc1 (stereo partly drawn) [Compound 30, ethyl 2-(((((2R,3S,4R,5R)-5-(4-aminopyrrolo[2,1-f][1,2,4]triazin-7-yl)-5-cyano-3,4-dihydroxytetrahydrofuran-2-yl)methoxy)(phenoxy)phosphoryl)amino)-2-methylpropanoate] | 11100 nM | > 20000 nM | 1230 nM | 
CC(C)OC(=O)C(C)(C)NP(=O)(OC[C@H]1O[C@@](C#N)(c2ccc3c(N)ncnn23)[C@H](O)[C@@H]1O)Oc1ccccc1 (stereo partly drawn) [Compound 31, Isopropyl 2-(((((2R,3S,4R,5R)-5-(4-aminopyrrolo[2,1-f][1,2,4]triazin-7-yl)-5-cyano-3,4-dihydroxytetrahydrofuran-2-yl)methoxy)(phenoxy)phosphoryl)amino)-2-methylpropanoate] | 11100 nM | > 20000 nM | 1230 nM | EC50 [3]: > 10000 nM
